The text below walks through data of ChEMBL document CHEMBL4831562, “Discovery of Imidazole-Based Inhibitors of Plasmodium falciparum cGMP-Dependent Protein Kinase” (ACS Med Chem Lett, 2021).

In brackets after ≈: the same amount, converted by molar mass.

Data set [1] in a line: Inhibition of Plasmodium falciparum PKG using FAM-labeled PKAtide or IP3R-derived peptide as a substrate preincubated for 15 mins followed by substrate addition and incubated for 60 mins by IMAP assay.
Data set [2] deals with Plasmodium cynomolgi. The experiment in a line: Antiplasmodial activity against liver stage Plasmodium cynomolgi B infected in non-human primate hepatocytes assessed as inhibition of hypnozoite development incubated for 4 days from sporozoite addition by prophylactic assay. In kind it is functional, organism-based. The settings on record: Hepatocyte, 96 h.
The nature of data set [3]: Toxicity against non-human primate hepatocytes infected with liver stage Plasmodium cynomolgi B incubated for 4 days starting on day 4 post-sporozoite inoculation. Format: ADME, tissue-based, Hepatocyte. The settings on record: primates, 96 h, time 4 day.
Data set [4] concerns Plasmodium berghei. The data set is described as follows: Antiplasmodial activity against luciferase expressing Plasmodium berghei sporozoites infected in HepG2 cells assessed as decrease in parasite infection at 2 uM incubated for 16 hrs followed by replacement with compound free medium and measured after 48 hrs post infection by IVIS spectrum in vivo imaging analysis relative to control. Format: functional. The settings on record: read-out: INH.

Data set [5] addresses Cytochrome P450 3A4 (Homo sapiens, UniProt P08684). The experiment in a line: Inhibition of human CYP3A4 using testosterone as a substrate by LC/MS/MS analysis. In kind it is ADME.
Data set [6] concerns Plasmodium falciparum. The data set is described as follows: Antiplasmodial activity against asexual blood stage Plasmodium falciparum 3D7. Format: functional, organism-based.
The nature of data set [7]: Kinetic aqueous solubility of the compound at pH 7.4 measured after 1 hr by UV/LC-MS/MS analysis. In kind it is physicochemical. The settings on record: buffer, read-out: Kinetic_solubility.
Data set [8] relates to Plasmodium berghei. The experiment in a line: Antiplasmodial activity against luciferase expressing Plasmodium berghei sporozoites infected in HepG2 cells assessed as decrease in parasite infection at 10 uM incubated for 16 hrs followed by replacement with compound free medium measured after 48 hrs post infection by IVIS spectrum in vivo imaging analysis relative to control. Format: functional. The settings on record: read-out: INH.

Data set [9] has as its system Plasmodium cynomolgi. The experiment in a line: Antiplasmodial activity against liver stage Plasmodium cynomolgi B infected in non-human primate hepatocytes assessed as inhibition of liver schizonts development incubated for 4 days from sporozoite addition by prophylactic assay. The settings on record: Hepatocyte, 96 h. In kind it is functional, organism-based.
The test system of data set [10] is Plasmodium berghei. The experiment in a line: Antiplasmodial activity against luciferase expressing Plasmodium berghei hepatic stage sporozoites infected in HepG2 cells assessed as decrease in parasite infection incubated for 16 hrs followed by replacement with compound free medium measured after 48 hrs post infection by IVIS spectrum in vivo imaging analysis. Format: functional, organism-based.

The nature of data set [11]: Toxicity against non-human primate hepatocytes infected with liver stage Plasmodium cynomolgi B incubated for 4 days from sporozoite addition. Format: ADME, tissue-based, Hepatocyte. The settings on record: primates, 96 h, time 4 day.
Data set [12] concerns the target Cytochrome P450 2D6 (Homo sapiens, UniProt P10635). The experiment in a line: Inhibition of human CYP2D6 using 3-[2-(N,N-diethylamino)ethyl]-7-methoxy-4-methyl coumarin as a substrate incubated for 45 mins by fluorescence based analysis. In kind it is ADME.
Data set [13] in a line: Metabolic stability in human liver microsomes assessed as half life incubated for 60 mins in the presence of NADPH by LC-MS/MS analysis. Format: ADME, Microsome.
In data set [14] the target is Cytochrome P450 2C9 (Homo sapiens, UniProt P11712). The experiment in a line: Inhibition of human CYP2C9 using 7-methoxy-4(trifluoromethyl coumarin) as a substrate incubated for 15 mins by fluorescence based analysis. Format: ADME.
Data set [15] concerns Plasmodium cynomolgi. The experiment in a line: Antiplasmodial activity against liver stage Plasmodium cynomolgi B infected in non-human primate hepatocytes assessed as reduction in liver schizonts development incubated for 4 days starting on day 4 post-sporozoite inoculation by […] cure mode analysis. In kind it is functional, organism-based. The settings on record: Hepatocyte, 96 h.

For data set [16], the system named is Plasmodium cynomolgi. The experiment in a line: Antiplasmodial activity against liver stage Plasmodium cynomolgi B infected in non-human primate hepatocytes assessed as reduction in liver hypnozoites development incubated for 4 days starting on day 4 post-sporozoite inoculation by […] cure mode analysis. In kind it is functional, organism-based. The settings on record: Hepatocyte, 96 h.

Data set [17] can be described thus: Metabolic stability in mouse liver microsomes assessed as half life incubated for 60 mins in the presence of NADPH by LC-MS/MS analysis. Format: ADME, Microsome.
Data set [18] relates to Plasmodium falciparum. The data set is described as follows: Inhibition of Plasmodium falciparum PKG using FAM-labeled PKAtide or IP3R-derived peptide as a substrate at 1 uM preincubated for 15 mins followed by substrate addition and incubated for 60 mins by IMAP assay relative to control. The settings on record: time 75.0 min.
Data set [19] in a line: Inhibition of Plasmodium falciparum PKG.
In data set [20] the test system is cGMP-dependent protein kinase (Plasmodium falciparum), W7JX98 [T618Q]. The experiment in a line: Inhibition of Plasmodium falciparum PKG T618Q mutant using FAM-labeled PKAtide or IP3R-derived peptide as a substrate at 10 uM preincubated for 15 mins followed by substrate addition and incubated for 60 mins by IMAP assay relative to control. The settings on record: time 75.0 min.

For data set [21], the species on record is Homo sapiens. The data set is described as follows: Inhibition of human PKG using FAM-labeled PKAtide or IP3R-derived peptide as a substrate at 10 uM preincubated for 15 mins followed by substrate addition and incubated for 60 mins by IMAP assay relative to control. The settings on record: time 75.0 min.

Cytochrome P450 2D6, sequence (P10635 whole entry): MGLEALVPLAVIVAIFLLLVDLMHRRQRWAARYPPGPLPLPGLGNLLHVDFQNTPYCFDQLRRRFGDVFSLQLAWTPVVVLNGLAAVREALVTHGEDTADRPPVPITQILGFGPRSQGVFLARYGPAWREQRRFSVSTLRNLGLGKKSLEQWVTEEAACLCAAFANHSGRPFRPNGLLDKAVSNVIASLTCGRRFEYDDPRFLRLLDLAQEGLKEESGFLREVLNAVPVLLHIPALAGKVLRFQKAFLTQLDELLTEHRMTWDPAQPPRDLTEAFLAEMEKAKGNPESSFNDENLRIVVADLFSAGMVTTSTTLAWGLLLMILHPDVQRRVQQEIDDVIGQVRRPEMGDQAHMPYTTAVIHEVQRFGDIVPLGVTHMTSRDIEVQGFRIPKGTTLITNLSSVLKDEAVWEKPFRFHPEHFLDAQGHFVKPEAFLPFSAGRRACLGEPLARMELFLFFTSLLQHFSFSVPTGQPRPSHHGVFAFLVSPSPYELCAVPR
Cytochrome P450 2C9, sequence (P11712 whole entry): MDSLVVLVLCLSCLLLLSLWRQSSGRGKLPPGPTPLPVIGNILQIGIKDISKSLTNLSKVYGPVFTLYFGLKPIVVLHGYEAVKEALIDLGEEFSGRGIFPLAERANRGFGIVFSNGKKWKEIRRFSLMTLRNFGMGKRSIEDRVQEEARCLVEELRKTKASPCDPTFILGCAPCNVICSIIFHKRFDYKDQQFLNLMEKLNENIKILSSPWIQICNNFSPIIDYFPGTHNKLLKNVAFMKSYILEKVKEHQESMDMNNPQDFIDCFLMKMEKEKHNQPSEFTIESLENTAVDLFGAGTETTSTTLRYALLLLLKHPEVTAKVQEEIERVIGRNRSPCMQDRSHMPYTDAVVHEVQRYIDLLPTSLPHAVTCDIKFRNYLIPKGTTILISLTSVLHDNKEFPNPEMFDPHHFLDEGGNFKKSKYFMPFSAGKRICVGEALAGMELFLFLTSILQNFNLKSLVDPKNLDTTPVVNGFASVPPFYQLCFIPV
Cytochrome P450 3A4, sequence (P08684 whole entry): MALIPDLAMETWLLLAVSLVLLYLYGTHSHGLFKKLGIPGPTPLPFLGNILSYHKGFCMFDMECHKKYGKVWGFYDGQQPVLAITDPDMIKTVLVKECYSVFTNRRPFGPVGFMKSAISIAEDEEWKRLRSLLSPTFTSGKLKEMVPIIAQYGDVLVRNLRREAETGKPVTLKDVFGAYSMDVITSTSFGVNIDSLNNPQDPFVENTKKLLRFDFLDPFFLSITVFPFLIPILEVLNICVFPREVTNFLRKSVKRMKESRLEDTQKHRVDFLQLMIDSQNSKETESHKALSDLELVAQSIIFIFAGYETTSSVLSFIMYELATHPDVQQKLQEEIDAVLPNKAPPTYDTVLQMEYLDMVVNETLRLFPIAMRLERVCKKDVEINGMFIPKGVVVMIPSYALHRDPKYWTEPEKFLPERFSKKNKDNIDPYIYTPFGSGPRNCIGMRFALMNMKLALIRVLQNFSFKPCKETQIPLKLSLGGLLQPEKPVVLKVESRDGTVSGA
cGMP-dependent protein kinase (Plasmodium falciparum), W7JX98 [T618Q], sequence (W7JX98 whole entry T618Q): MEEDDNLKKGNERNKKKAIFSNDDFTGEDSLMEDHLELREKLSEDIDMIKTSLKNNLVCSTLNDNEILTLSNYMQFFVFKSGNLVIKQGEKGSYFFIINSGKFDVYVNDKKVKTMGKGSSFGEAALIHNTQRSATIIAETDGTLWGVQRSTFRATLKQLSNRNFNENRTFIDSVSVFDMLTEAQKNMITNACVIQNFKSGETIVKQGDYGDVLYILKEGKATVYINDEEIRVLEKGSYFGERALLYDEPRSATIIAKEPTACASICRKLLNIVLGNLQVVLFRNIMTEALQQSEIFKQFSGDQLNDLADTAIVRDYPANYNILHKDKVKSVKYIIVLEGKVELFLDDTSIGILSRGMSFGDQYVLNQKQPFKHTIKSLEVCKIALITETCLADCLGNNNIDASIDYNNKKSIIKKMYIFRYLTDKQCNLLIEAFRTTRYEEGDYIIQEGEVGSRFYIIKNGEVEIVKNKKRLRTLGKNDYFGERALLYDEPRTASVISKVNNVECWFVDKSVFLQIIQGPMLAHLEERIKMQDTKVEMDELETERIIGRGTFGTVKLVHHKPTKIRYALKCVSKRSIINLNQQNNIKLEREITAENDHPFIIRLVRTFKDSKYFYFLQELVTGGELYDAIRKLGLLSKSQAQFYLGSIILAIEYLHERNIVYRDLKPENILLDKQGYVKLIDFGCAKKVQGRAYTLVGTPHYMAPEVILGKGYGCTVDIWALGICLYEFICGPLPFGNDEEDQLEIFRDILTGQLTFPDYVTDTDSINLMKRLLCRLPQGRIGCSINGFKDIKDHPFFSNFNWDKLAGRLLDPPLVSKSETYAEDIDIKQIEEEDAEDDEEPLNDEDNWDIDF

`Cc1cn(-c2ccnc(N[C@@H]3CCN(C(=O)c4ccn(C)n4)C3)n2)c(-c2ccccc2)n1`: the half-inhibitory concentration (IC50) in data set [1] turned out to be 1000 nM.
With `O=C(c1nccs1)N1CC[C@@H](Nc2nccc(-n3cc(C4CC4)nc3-c3cccc(Cl)c3)n2)C1`, the IC50 is 9880 nM in data set [2]; 190 nM in data set [5]; 930 nM in data set [9]; 60 nM in data set [1]; over 10000 nM in [12]; 2800 nM in data set [14]. The IC50 is 4620 nM in [15] and over 20000 nM in data set [16]. Further, the Activity in [3] and in data set [11] was over 20 µM in each case. The percent decrease in parasite infection in HepG2 cells at 2 µM in [4] was found to be 94%. For the same compound, the figures for the 50% effective concentration (EC50) in [6] and in data set [10] were 3300 nM and 5700 nM, respectively. Further, the solubility kinetic at 1 h in data set [7] stood at 28 µM (≈ 13.8 µg/mL). Besides, the percent inhibition of parasite infection at 10 µM in [8] stood at 93%. The results for the half-life in data set [13] and in data set [17] were 3.7 min and under 2 min, respectively.
In turn, `Cc1cn(-c2ccnc(N[C@@H]3CCN(C(=O)c4nccs4)C3)n2)c(-c2cccc(OC(F)(F)F)c2)n1` returned an IC50 in data set [1] of 150 nM.
`Cc1cn(-c2ccnc(N[C@@H]3CCN(C(=O)c4nccs4)C3)n2)c(-c2ccccc2Cl)n1` displayed an inhibition in data set [18] of 47%.
Take `CCN(CC)Cc1onc(-c2cccc(Cl)c2)c1-c1ccnc(N[C@@H]2CCN(C(=O)c3ccsn3)C2)n1`: the percent decrease in parasite infection in HepG2 cells at 2 µM in data set [4] is 0%. Moreover, in data set [19], inhibition was half-maximal at 17 nM (IC50).
On to `COc1cccc(-c2nc(C)cn2-c2ccnc(N[C@@H]3CCN(C(=O)c4nccs4)C3)n2)c1`, for which 86 nM corresponded to half-maximal inhibition in [1] (IC50).
With `O=C(c1nccs1)N1CC[C@@H](Nc2nccc(-n3cc(C4CC4)nc3-c3ccccc3)n2)C1`, the IC50 is 290 nM in [5], 100 nM in [1], over 10000 nM in [12] and over 10000 nM in data set [14]. Moreover, the 50% effective concentration (EC50) came to 7600 nM in [6] and 20000 nM in data set [10]. Moreover, in [7], the solubility kinetic at 1 h was found to be 92 µM (≈ 42.1 µg/mL). Besides, the half-life is 4.8 min in [13] and under 2 min in [17].
As for `Cc1cn(-c2ccnc(NC3CCN(C(=O)c4nccs4)CC3)n2)c(-c2ccccc2)n1`, the inhibition in data set [18] came out at 5%.
In data set [18], `Cc1cn(-c2ccnc(NCC3CCCN3C(=O)c3nccs3)n2)c(-c2ccccc2)n1` (stereo not drawn) returned an inhibition of 3%.
As to `CO[C@@H]1[C@@H](OC)[C@H](C)C(O)(CC(=O)O)O[C@H]1[C@H](C)[C@H]1O[C@@]2(CC[C@@](C)([C@H]3CC[C@@](C)([C@@H]4O[C@@H]([C@H]5OC(C)(O)[C@H](C)C[C@@H]5C)C[C@@H]4O[C@@H]4C[C@H](OC)[C@@H](OC)[C@H](C)O4)O3)O2)C[C@H](O)[C@H]1C` (stereo partly drawn), the IC50 in [2] was determined as 20 nM; in data set [9] it was 10 nM; in data set [15], 30 nM; in [16] it was 30 nM. The Activity turned out to be 11.91 µM in [3] and 5.78 µM in data set [11].
In data set [18], `Cc1cn(-c2ccnc(NCC3(NC(=O)c4nccs4)CC3)n2)c(-c2ccccc2)n1` yielded an inhibition of 6%.
With `Cc1cn(-c2ccnc(NC3CCCN(C(=O)c4nccs4)C3)n2)c(-c2ccccc2)n1` (stereo not drawn), the inhibition in data set [18] came out at 4%.
As to `Cc1cn(-c2ccnc(N[C@@H]3CCN(C(=O)c4nccs4)C3)n2)c(-c2ccccc2)n1`, the IC50 in [2] is over 20000 nM; in data set [9], 7910 nM; in data set [1] it was 320 nM; in data set [15], 11600 nM; in data set [16] it was over 20000 nM. Moreover, the Activity in data set [3] and in [11] was over 20 µM in each case. Further, the percent decrease in parasite infection in HepG2 cells at 2 µM in data set [4] was determined as 78%. In addition, the solubility kinetic at 1 h in data set [7] stood at 200 µM (≈ 86.3 µg/mL). The percent inhibition of parasite infection at 10 µM in data set [8] stood at 89%. Besides, the half-life in data set [13] and in data set [17] was under 2 min each time. Besides, the inhibition in data set [20] and in data set [21] was 3% in each case.
In data set [18], `Cc1cn(-c2ccnc(N[C@H]3CCN(C(=O)c4nccs4)C3)n2)c(-c2ccccc2)n1` came in with an inhibition of 4%.
As for `Cc1cn(-c2ccnc(N[C@@H]3CCN(C(=O)c4nccs4)C3)n2)c(-c2ccc(Cl)cc2)n1`, the IC50 in [1] came out at 1160 nM.
On to `CN1CCC(c2cc(-c3ccc(F)cc3)c(-c3ccncc3)[nH]2)CC1`, for which the percent decrease in parasite infection in HepG2 cells at 2 µM in data set [4] turned out to be 91%. Moreover, the EC50 in [6] turned out to be 150 nM; in data set [10], 300 nM. For the same compound, the percent inhibition of parasite infection at 10 µM in data set [8] was 94%. Further, the values for the half-inhibitory concentration (IC50) in [1] and in data set [19] were 22 nM and 20 nM, respectively.
Regarding `Cc1cn(-c2ccnc(NCC3CCN3C(=O)c3nccs3)n2)c(-c2ccccc2)n1` (stereo not drawn), the inhibition in [18] worked out at 2%.
For `COc1cc(C)c2c(Oc3cccc(C(F)(F)F)c3)c(OC)cc(NC(C)CCCN)c2n1` (stereo not drawn) [TAFENOQUINE], the IC50 came out at 140 nM in data set [2], 190 nM in [9], 3610 nM in data set [15] and 3500 nM in data set [16]. In addition, the Activity stood at 18.61 µM in data set [3] and 13.82 µM in data set [11].
With `CCN(CC)Cc1onc(-c2cccc(Cl)c2)c1-c1ccnc(N[C@@H]2CCN(C(=O)c3ccon3)C2)n1`, the percent decrease in parasite infection in HepG2 cells at 2 µM in data set [4] turned out to be 52%. In addition, the half-maximal inhibitory concentration (IC50) in [19] came to 13 nM.
